# Source: patent US20160271145A1, “METHOD FOR ENLARGING THE PARTICLE SIZE OF CRYSTALLINE MICROPARTICLES OF ACTIVE SUBSTANCE” (Jesalis Pharma GmbH, priority 2012, published 2016)
# Tests used:
# [1] = particle size (d50) and span by laser diffraction, Mastersizer E; assay type: physicochemical; conditions: for d50 value of the particle size distribution (first d50): acetone:water 1:1
# From the text: The particle size distribution and the diameters of the particles within the framework of the invention are relative to volume. dx means that x percent by volume (vol. %) of the particles have a diameter which is smaller than the stated value. With a d50 value of 1 μm therefore 50 vol. % of the particles have a diameter smaller than 1 μm (micrometre). If d10 or […] is 1 μm, 10 or 90 vol. %, respectively, of the particles have a diameter smaller than 1 μm. The d50 value is also called average particle size or average particle diameter.
# Within the framework of the invention, the average particle size (d50 values) and the particle size distribution were measured by means of laser diffraction, which provides a distribution of the particle sizes. A Mastersizer E (Malvern Instruments) was used. 5 mg solid is dispersed for 20 min in 5 ml 0.1% aqueous sodium dodecyl sulphate solution using ultrasound (2 mm sonotrode, sonicator UPS 200, Dr. Hielscher GmbH, 30% amplitude) and placed in the measurement cell of the Mastersizer E, an optical concentration of 18% is set and measurement is carried out (Fraunhofer evaluation). The span was calculated from the d10, d50 and d90 values ((d90 −d10);d50 ).
# [2] = solubility of the active substance in the solvent-antisolvent (acetone-water) mixture of the first suspension; assay type: physicochemical; conditions: acetone content reduced to 42% by addition of water
# From the text: Solubilities of the active substance in the solvent-antisolvent mixture of the first suspension of 0.001-0.5 wt. % are suitable for carrying out the method according to the invention. Solubilites of 0.01-0.2 wt. %, in particular 0.02-0.2 wt. % are preferred. By solubility is meant, within the framework of the invention, the usual solubility known to a person skilled in the art, namely the solubility of a substance in thermodynamic equilibrium at room temperature in the solvent-antisolvent mixture. The solubilities are not relative to volume, i.e., they specify the solubility of the active substance in the total volume of the liquid phase of the suspension. It is clear from the stated solubilities that microparticles of active substance are present throughout the method.
# [3] = habit of the particles evaluated on a microscope image (ratio of largest to smallest size); assay type: physicochemical
# Experimental: The predominantly spherical shape manifests itself in that in this preferred embodiment the ratio of the largest to the smallest size of the individual particles is on average ≦2. This ratio is determined by measurement on a microscope image of the particles, by determining the ratio of the largest to the smallest size of each individual particle for at least 50 randomly selected particles and then ascertaining the average over the at least 50 particles. Preferably, the ratio of the largest to the smallest size of the individual particles is on average ≦1.6.
# Immediately after the end of the stirring time, the batch is filtered using a nutsch filter with a negative pressure of 100 mbar on the filtrate side and washed with 1.0 l water. The moist filter cake has a mass of approx. 1100 g and is transferred into a 3-l container, topped up to 2160 g with water and redispersed with the Ultra Turrax T50 (|KA) at 12,000 1/min for 10 min. After this, the third d50 value is determined to be 1.28 μm from this second suspension. The span value of the particles is 1.28. The habit is evaluated microscopically as stated above (light microscope image). Habit of the particles: spherical; ratio of the largest to the smallest size of the individual particles on average=1.48. The second suspension is then spray-dried and the particles of fluticasone propionate are obtained.
# [4] = microparticles by the method of DE 102008037025 A1, as stated in the background; cited from earlier work
# [5] = granulometric analysis and span by laser diffraction (Sympatec, RODOS), reference test according to DE 102008037025 A1; assay type: physicochemical; conditions: Comparison example, spray-dried, dispersing pressure 5 bar
# Experimental: A 100-ml stirred vessel with blade stirrer is charged with 160 g of Y-stabilized zirconium oxide spheres with a diameter of 0.5 mm plus 30 ml of water. A solution of 0.6 g fluticasone propionate in 10 ml acetone is added to these, with stirring. After stirring for 5 min, a solution of 1.8 g fluticasone in 30 ml acetone and in the same ratio 90 ml water are added dropwise within 10 min, with stirring at 1300 rev/min. Simultaneously, product suspension is drawn off, with approximately constant filling level. Addition and product withdrawal can also take place quasicontinuously in smaller portions without any adverse effect on the result, if the above time frame is maintained. After addition, to complete the yield rinsing is carried out with approx. 60 ml water. Alternatively, the suspension in the crystallizer can be left as starting suspension for the subsequent batch. Altogether, 180 g of suspension with a solids content of 13 mg per ml is obtained. The suspension is then spray-dried Granulometric analysis and span determination were effected by means of laser diffraction (Sympatec Helps, RODOS dispersing system, dispersing pressure 5 bar).
# [6] = Example 2, mixture of the second suspensions of the preceding and subsequent batch
# [7] = Example 1, light microscope image
smiles,measurement,setting,value
CCC(=O)O[C@]1(C(=O)SCF)[C@H](C)C[C@H]2[C@@H]3C[C@H](F)C4=CC(=O)C=C[C@]4(C)[C@@]3(F)[C@@H](O)C[C@@]21C [fluticasone propionate],second d50,"[1]; Example 1, after 4.5 h stirring, 42% acetone",1.12 μm
same,span value of the particles,"[1]; Example 1, second suspension",1.28
same,third d50 value,"[1]; Example 1, second suspension after further 17 h stirring, filtration and redispersing in water",1.28 μm
same,d50 value of the particle size distribution (first d50),"[1]; Example 1, starting suspension",0.98 μm
same,d50 value,[1]; [6],1.28 μm
same,span value of the distribution,[1]; [6],1.28
same,second d50 value,"[1]; Example 2, preceding batch, after 4.0 h stirring, 42% acetone",1.12 μm
same,span value of the distribution,"[1]; Example 2, preceding batch, second suspension",1.29
same,third d50 value,"[1]; Example 2, preceding batch, second suspension after further 13 h stirring",1.24 μm
same,d50 value of the particle size distribution (first d50),"[1]; Example 2, preceding batch, starting suspension",0.99 μm
same,intermediate d50 value,"[1]; Example 2, subsequent batch, after 3.5 h stirring, 42% acetone",1.09 μm
same,span value of the distribution,"[1]; Example 2, subsequent batch, second suspension",1.24
same,third d50 value,"[1]; Example 2, subsequent batch, second suspension, stirring time increased to 18 h",1.30 μm
same,d50 value of the particle size distribution (first d50),"[1]; Example 2, subsequent batch, starting suspension",0.97 μm
same,solubility of fluticasone propionate,[2],0.032 wt. %
same,habit of the particles,[3]; [7],spherical
same,ratio of the largest to the smallest size of the individual particles on average,[3]; [7],1.48
same,habit of the particles,"[3]; Example 2, subsequent batch",spherical
same,ratio of the largest to the smallest size of the individual particles on average,"[3]; Example 2, subsequent batch",1.45
same,d50 values,[4],1-2 μm
same,span values,[4],≥ 1.7
same,d50,[5],1.47 μm
same,span,[5],1.78
